Measurements from ChEMBL document CHEMBL4138123, “Design, synthesis and biological evaluation of novel pyrazolochalcones as potential modulators of PI3K/Akt/mTOR pathway and inducers of apoptosis in breast cancer cells” (Eur J Med Chem, 2017).
The source made the active and inactive calls. The rule behind the calls is not given here.

How the values were obtained:
MCF7 [1] = test: Inhibition of PI3K in human MCF7 cells assessed as increase in GSK-3beta phosphorylation at Ser9 at 2 uM after 24 hrs by Western blot analysis; assay type: cell-based
MCF7 [2] = test: Downregulation of PI3K protein expression in human MCF7 cells at 2 uM after 24 hrs by Western blot analysis; assay type: functional, cell-based
MCF7 [3] = test: Upregulation of PTEN mRNA expression in human MCF7 cells at 2 uM after 48 hrs by qRT-PCR analysis; assay type: functional, cell-based
MCF7 [4] = test: Downregulation of Akt protein expression in human MCF7 cells at 2 uM after 24 hrs by Western blot analysis; assay type: functional, cell-based
MCF7 [5] = test: Downregulation of Akt1 mRNA expression in human MCF7 cells at 2 uM after 48 hrs by qRT-PCR analysis; assay type: functional, cell-based
MCF7 [6] = test: Upregulation of BAX mRNA expression in human MCF7 cells at 2 uM after 48 hrs by qRT-PCR analysis; assay type: functional, cell-based
MCF7 [7] = test: Inhibition of PI3K in human MCF7 cells assessed as downregulation of phosphorylated Akt levels at 2 uM after 24 hrs by Western blot analysis; assay type: cell-based
MCF7 [8] = test: Induction of intrinsic apoptosis in human MCF7 cells assessed as effect on mitochondrial membrane depolarization at 2 uM after 5 hrs by DiOC6 staining-based FACS analysis relative to control; assay type: functional
MCF7 [9] = test: Induction of intrinsic apoptosis in human MCF7 cells assessed as effect on mitochondrial membrane depolarization at 2 uM after 18 hrs by DiOC6 staining-based FACS analysis (reference value: 2%); assay type: functional
MCF7 [10] = test: Induction of apoptosis in human MCF7 cells assessed as late apoptotic cells at 2 uM after 24 hrs by Annexin-V FITC/propidium iodide staining-based FACS analysis (reference value: 5.4%); assay type: functional
MCF7 [11] = test: Induction of intrinsic apoptosis in human MCF7 cells assessed as effect on mitochondrial membrane depolarization by measuring mean fluorescence intensity at 2 uM after 18 hrs by DiOC6 staining-based FACS analysis (reference value: 463); assay type: functional
MCF7 [12] = test: Cell cycle arrest in human MCF7 cells assessed as accumulation at S phase at 2 uM after 48 hrs by flow cytometric analysis (reference value: 57.7%); assay type: functional
MCF7 [13] = test: Induction of apoptosis in human MCF7 cells assessed as early apoptotic cells at 2 uM after 24 hrs by Annexin-V FITC/propidium iodide staining-based FACS analysis (reference value: 0.5%); assay type: functional
MCF7 [14] = test: Cell cycle arrest in human MCF7 cells assessed as accumulation at G0/G1 phase at 2 uM after 48 hrs by flow cytometric analysis (reference value: 34.2%); assay type: functional
MCF7 [15] = test: Induction of apoptosis in human MCF7 cells assessed as necrotic cells at 2 uM after 24 hrs by Annexin-V FITC/propidium iodide staining-based FACS analysis (reference value: 0.2%); assay type: functional
MCF7 [16] = test: Cell cycle arrest in human MCF7 cells assessed as accumulation at S phase at 2 uM after 24 hrs by flow cytometric analysis (reference value: 79.1%); assay type: functional
MCF7 [17] = test: Cell cycle arrest in human MCF7 cells assessed as accumulation at G2/M phase at 2 uM after 48 hrs by flow cytometric analysis (reference value: 8.1%); assay type: functional

COc1ccc(C(=O)/C=C/c2cc(-c3cc(OC)c(OC)c(OC)c3)n[nH]2)cc1
Activity call (increase in GSK-3beta Ser9 phosphorylation) (MCF7 [1]): Active | Activity (MCF7 [2]): Active | Activity (MCF7 [3]): Active | Activity (MCF7 [4]): Active | Activity (MCF7 [5]): Active | Activity (MCF7 [6]): Active | phospho-Akt downregulation (active/inactive) (MCF7 [7]): Active

COc1cc(C(=O)/C=C/c2cc(-c3ccc4c(c3)OCO4)n[nH]2)cc(OC)c1OC
Activity call (increase in GSK-3beta Ser9 phosphorylation) (MCF7 [1]): Active | Activity (MCF7 [2]): Active | Activity (MCF7 [3]): Active | Activity (MCF7 [8]): 3.4% | Activity (MCF7 [9]): 26% | Activity (MCF7 [10]): 8.4% | Flu intensity (MCF7 [11]): 313 | Activity (MCF7 [12]): 59.1% | Activity (MCF7 [4]): Active | Activity (MCF7 [13]): 0.7% | Activity (MCF7 [5]): Active | Activity (MCF7 [6]): Active | Activity (MCF7 [14]): 39% | Activity (MCF7 [15]): 0.1% | Activity (MCF7 [16]): 0% | phospho-Akt downregulation (active/inactive) (MCF7 [7]): Active | Activity (MCF7 [17]): 1.98%

COc1ccc(C(=O)/C=C/c2cc(-c3cc(OC)c(OC)c(OC)c3)n[nH]2)cc1OC
Activity call (increase in GSK-3beta Ser9 phosphorylation) (MCF7 [1]): Active | Activity (MCF7 [2]): Active | Activity (MCF7 [3]): Active | Activity (MCF7 [9]): 42% | Activity (MCF7 [10]): 4.2% | Flu intensity (MCF7 [11]): 294 | Activity (MCF7 [12]): 43% | Activity (MCF7 [4]): Active | Activity (MCF7 [13]): 1.4% | Activity (MCF7 [5]): Active | Activity (MCF7 [6]): Active | Activity (MCF7 [14]): 43.9% | Activity (MCF7 [15]): 0.1% | Activity (MCF7 [16]): 29.3% | phospho-Akt downregulation (active/inactive) (MCF7 [7]): Active | Activity (MCF7 [17]): 13.1%

COc1ccc(-c2cc(/C=C/C(=O)c3ccc(OC)c(OC)c3)[nH]n2)cc1
Activity call (increase in GSK-3beta Ser9 phosphorylation) (MCF7 [1]): Active | Activity (MCF7 [2]): Active | Activity (MCF7 [3]): Active | Activity (MCF7 [9]): 26% | Activity (MCF7 [10]): 4.4% | Flu intensity (MCF7 [11]): 355 | Activity (MCF7 [12]): 38.9% | Activity (MCF7 [4]): Active | Activity (MCF7 [13]): 1.1% | Activity (MCF7 [5]): Active | Activity (MCF7 [6]): Active | Activity (MCF7 [14]): 44.6% | Activity (MCF7 [15]): 0.7% | Activity (MCF7 [16]): 66.1% | phospho-Akt downregulation (active/inactive) (MCF7 [7]): Active | Activity (MCF7 [17]): 16.5%

COc1cc(C(=O)/C=C/c2cc(-c3cc(OC)c(OC)c(OC)c3)n[nH]2)cc(OC)c1OC
Activity call (increase in GSK-3beta Ser9 phosphorylation) (MCF7 [1]): Active | Activity (MCF7 [2]): Active | Activity (MCF7 [3]): Active | Activity (MCF7 [9]): 1% | Activity (MCF7 [10]): 11.2% | Flu intensity (MCF7 [11]): 637 | Activity (MCF7 [12]): 33% | Activity (MCF7 [4]): Active | Activity (MCF7 [13]): 3.1% | Activity (MCF7 [5]): Active | Activity (MCF7 [6]): Active | Activity (MCF7 [14]): 62% | Activity (MCF7 [15]): 1.1% | Activity (MCF7 [16]): 73.1% | phospho-Akt downregulation (active/inactive) (MCF7 [7]): Active | Activity (MCF7 [17]): 4.96%
